Data on 15 compounds can be found in patent US10219516B2, “Molecules having pesticidal utility, and intermediates, compositions, and processes, related thereto” (priority 2015, dated 2019).

What all share (assay type): in vivo
Assay [1] concerns Beet Armyworm (Spodoptera exigua, LAPHEG). Description: Bioassay on Beet Armyworm (BAW), 128-well diet tray assay. An outline of the steps: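 Test molecule dissolved in acetone-water 90:10 is applied at 50 μg/cm^2 onto artificial diet and allowed to dry. Second instar larvae, one to five per well, are then added, and trays are vented and kept at 25° C. for five to seven days before mortality is scored.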

Assay [2] relates to Cabbage Looper (Trichoplusia ni, TRIPNI). Description: Bioassay on Cabbage Looper (CL), 128-well diet tray assay. The following applies: Trichoplusia ni. An outline of the steps: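 Second-instar larvae, one to five per well, placed on artificial diet treated with 50 μg/cm^2 test molecule in 90:10 acetone-water, dried before infestation. Held 5–7 days at 25° C, 14:10 light-dark; percent mortality averaged over eight wells.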

The subject of assay [3] is Green Peach Aphid (Myzus persicae, MYZUPE). Briefly: Bioassay on Green Peach Aphid (GPA), foliar spray on infested cabbage seedlings. The conditions noted are these: 72 h. Here is the method:
Certain molecules disclosed in this document were tested against GPA using procedures described in the following example. In the reporting of the results, the “GPA & YFM Rating Table” was used (See Table Section).
Cabbage seedlings grown in 3-inch pots, with 2-3 small (3-5 cm) true leaves, were used as test substrate. The seedlings were infested with 20-50 GPA (wingless adult and nymph stages) one day prior to chemical application. Four pots with individual seedlings were used for each treatment. Test molecules (2 mg) were dissolved in 2 mL of acetone/methanol (1:1) solvent, forming stock solutions of 1000 ppm test molecule. The stock solutions were diluted 5× with 0.025% Tween 20 in water to obtain the solution at 200 ppm test molecule. A hand-held aspirator-type sprayer was used for spraying a solution to both sides of […] leaves until runoff. Reference plants (solvent check) were sprayed with the diluent only containing 20% by volume of acetone/methanol (1:1) solvent. Treated plants were held in a holding room for three days at approximately 25° C. and ambient relative humidity (RH) prior to grading. Evaluation was conducted by counting the number of live aphids per plant under a microscope. Percent control was measured using Abbott's correction formula (W. S. Abbott, “A Method of Computing the Effectiveness of an Insecticide” 3. Econ. Entomol. 18 (1925), pp. 265-267) as follows. Corrected % Control=100*(X−Y)/X where X=No. of live aphids on solvent check plants and Y=No. of live aphids on treated plants. The results are indicated in the table entitled “Table ABC: Biological Results” (See Table Section).

Assay [4] relates to Yellow Fever Mosquito (Aedes aegypti, AEDSAE). Description: Bioassay on Yellow Fever Mosquito (YFM), 96-well plate larval assay. The conditions noted are these: for YFM (Biological Results, rating): Species YFM (Yellow Fever Mosquito); for YFM rating: Yellow Fever Mosquito, 96-well plate larval assay. An outline of the steps:
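Each well was scored for mortality after 3 days at room temperature under a non-evaporative lid. Test molecules came from DMSO masters (4000 ppm stock) diluted with water/acetone 90:10 and dispensed into six replicate plates, which were then infested with roughly 1-day-old larvae in liver-powder water.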

Setting [5] is: Species BAW (Beet Armyworm), read-out: BAW (Biological Results, rating).
[6] abbreviates: Species CL (Cabbage Looper), read-out: CL (Biological Results, rating).
The mark [7] stands for this setting: foliar, Species GPA (Green Peach Aphid), read-out: GPA (Biological Results, rating).
Setting [8] is: Beet Armyworm, 128-well diet tray assay, read-out: BAW rating.
Setting [9] is: Cabbage Looper, 128-well diet tray assay, read-out: CL rating.
The mark [10] stands for this setting: Green Peach Aphid, foliar spray on cabbage seedlings, read-out: GPA rating.

Where two headings read alike, the source gives them in different places.

On to `O=C(Nc1ccc(F)cc1F)c1cc(NC(=O)[C@H]2[C@H](c3cc(Cl)cc(Cl)c3)C2(Cl)Cl)ccc1Cl` (relative stereo) [F18, trans-2-Chloro-5-(2,2-dichloro-3-(3,5-dichlorophenyl)cyclopropane-1-carboxamido)-N-(2,4-difluorophenyl)benzamide], for which the pest or weed control at 50 µg/cm2 in assay [1] (setting [5]) and in assay [2] (setting [6]) was 50 to 100% in each case. The pest or weed control at 200 µg/mL in assay [3] (setting [7]) lay in the range of 80 to 100%. Besides, the “YFM (Biological Results, rating)” value in assay [4] is given as “A (80-100)”.

`O=C(Nc1ccc(F)cc1F)c1cc(NC(=O)[C@H]2[C@H](c3ccc(Cl)c(Cl)c3)C2(Cl)Cl)ccc1Cl` (relative stereo) [F39, trans-2-Chloro-5-(2,2-dichloro-3-(3,4-dichlorophenyl)cyclopropane-1-carboxamido)-N-(2,4-difluorophenyl)benzamide]: the pest or weed control at 50 µg/cm2 in assay [1] (setting [5]) and in assay [2] (setting [6]) was 50 to 100% each time. Moreover, the pest or weed control at 200 µg/mL in assay [3] (setting [7]) is 80 to 100%. Besides, the “YFM (Biological Results, rating)” value in assay [4] is given as “A (80-100)”.

`CN(C(=O)c1cc(NC(=O)[C@H]2[C@H](c3cc(Cl)cc(Cl)c3)C2(Cl)Cl)ccc1Cl)c1ccccc1F` (relative stereo) [F35, trans-2-Chloro-5-(2,2-dichloro-3-(3,5-dichlorophenyl)cyclopropane-1-carboxamido)-N-(2-fluorophenyl)-N-methylbenzamide]: the pest or weed control at 50 µg/cm2 in assay [1] (setting [5]) and in assay [2] (setting [6]) was 50 to 100% throughout. Also, the pest or weed control at 200 µg/mL in assay [3] (setting [7]) was 80 to 100%. For the same compound, in assay [4], the “YFM (Biological Results, rating)” value is listed as “A (80-100)”.

Turning to `CN(C(=O)c1cc(NC(=O)[C@H]2[C@H](c3cc(Cl)cc(Cl)c3)C2(Cl)Cl)ccc1Cl)c1ccc(F)cc1F` (relative stereo) [F44, trans-2-Chloro-5-(2,2-dichloro-3-(3,5-dichlorophenyl)cyclopropane-1-carboxamido)-N-(2,4-difluorophenyl)-N-methylbenzamide], the pest or weed control at 50 µg/cm2 in assay [1] (setting [5]) and in assay [2] (setting [6]) was 50 to 100% each time. In addition, in assay [3] (setting [7]), the pest or weed control at 200 µg/mL fell in the range of 80 to 100%. The “YFM (Biological Results, rating)” value in assay [4] was “A (80-100)”.

On to `O=C(Nc1ccc2ncsc2c1)c1cc(NC(=O)C2C(c3cc(Cl)cc(Cl)c3)C2(Cl)Cl)ccc1Cl` (stereo not drawn) [F434, N-(Benzo[d]thiazol-6-yl)-2-chloro-5-(trans)-2,2-dichloro-3-(3,5-dichlorophenyl)cyclopropane-1-carboxamido)benzamide], for which the pest or weed control at 50 µg/cm2 in assay [1] (setting [8]) and in assay [2] (setting [9]) was 50 to 100% in each case. The pest or weed control at 200 µg/mL in assay [3] (setting [10]) lay within 0 to 80%. Further, in assay [4], the YFM rating result is “A (80-100)”.

Take `O=C(Nc1c(F)cccc1F)c1cc(NC(=O)[C@H]2[C@H](c3ccc(Cl)c(F)c3)C2(Cl)Cl)ccc1Cl` (relative stereo) [F163, trans-2-Chloro-5-(2,2-dichloro-3-(4-chloro-3-fluorophenyl)cyclopropane-1-carboxamido)-N-(2,6-difluorophenyl)benzamide]: the pest or weed control at 50 µg/cm2 in assay [1] (setting [5]) and in assay [2] (setting [6]) was 50 to 100% in each case. Moreover, the pest or weed control at 200 µg/mL in assay [3] (setting [7]) is 0 to 80%. Besides, the “YFM (Biological Results, rating)” value in assay [4] is “B (More than 0-Less than 80)”.

On to `COCC(=O)N(C)c1ccc(NC(=O)c2cc(NC(=O)[C@H]3[C@H](c4cc(Cl)cc(Cl)c4)C3(Cl)Cl)ccc2Cl)cc1` (relative stereo) [PF31, trans-2-Chloro-5-(2,2-dichloro-3-(3,5-dichlorophenyl)cyclopropane-1-carboxamido)-N-(4-(2-methoxy-N-methylacetamido)phenyl)benzamide], for which the pest or weed control at 50 µg/cm2 in assay [1] (setting [8]) and in assay [2] (setting [9]) was 50 to 100% throughout. In addition, in assay [3] (setting [10]), the pest or weed control at 200 µg/mL lay within 0 to 80%. In addition, in assay [4], the YFM rating result is given as “B (More than 0-Less than 80)”.

For `CCN(C(=O)c1cc(NC(=O)[C@H]2[C@H](c3cc(Cl)cc(Cl)c3)C2(Cl)Cl)ccc1Cl)c1ccc(F)cc1` (relative stereo) [F99, trans-2-Chloro-5-(2,2-dichloro-3-(3,5-dichlorophenyl)cyclopropane-1-carboxamido)-N-ethyl-N-(4-fluorophenyl)benzamide], the pest or weed control at 50 µg/cm2 in assay [1] (setting [5]) and in assay [2] (setting [6]) was 50 to 100% each time. Further, the pest or weed control at 200 µg/mL in assay [3] (setting [7]) fell in the range of 80 to 100%. Besides, the “YFM (Biological Results, rating)” value in assay [4] is listed as “B (More than 0-Less than 80)”.

`O=C(Nc1ccc(F)cc1)c1cc(NC(=O)[C@H]2[C@H](c3ccc(Cl)c(Cl)c3)C2(Cl)Cl)ccc1F` (relative stereo) [F28, trans-5-(2,2-Dichloro-3-(3,4-dichlorophenyl)cyclopropane-1-carboxamido)-2-fluoro-N-(4-fluorophenyl)benzamide]: the pest or weed control at 50 µg/cm2 in assay [1] (setting [5]) and in assay [2] (setting [6]) was 50 to 100% each time. The pest or weed control at 200 µg/mL in assay [3] (setting [7]) was in the range of 80 to 100%. Besides, the “YFM (Biological Results, rating)” value in assay [4] was “A (80-100)”.

Regarding `O=C(Nc1c(F)cccc1F)c1cc(NC(=O)[C@H]2[C@H](c3cc(Cl)cc(Cl)c3)C2(Cl)Cl)ccc1Cl` (relative stereo) [F25, trans-2-Chloro-5-(2,2-dichloro-3-(3,5-dichlorophenyl)cyclopropane-1-carboxamido)-N-(2,6-difluorophenyl)benzamide], the pest or weed control at 50 µg/cm2 in assay [1] (setting [5]) and in assay [2] (setting [6]) was 50 to 100% throughout. In addition, the pest or weed control at 200 µg/mL in assay [3] (setting [7]) lay within 80 to 100%. Also, the “YFM (Biological Results, rating)” value in assay [4] is on record as “A (80-100)”.

On to `O=C(Nc1ccc(F)cc1)c1cc(NC(=O)[C@H]2[C@H](c3cc(Cl)cc(Cl)c3)C2(Cl)Cl)ccc1F` (relative stereo) [F129, trans-5-(2,2-Dichloro-3-(3,5-dichlorophenyl)cyclopropane-1-carboxamido)-2-fluoro-N-(4-fluorophenyl)benzamide], for which the pest or weed control at 50 µg/cm2 in assay [1] (setting [5]) and in assay [2] (setting [6]) was 50 to 100% throughout. For the same compound, the pest or weed control at 200 µg/mL in assay [3] (setting [7]) lay in the range of 80 to 100%. In assay [4], the “YFM (Biological Results, rating)” value is given as “A (80-100)”.

For the compound `O=C(Nc1ccc(F)cc1)c1ccc(Cl)c(NC(=O)[C@H]2[C@H](c3cc(Cl)cc(Cl)c3)C2(Cl)Cl)c1` (relative stereo) [F130, trans-4-Chloro-3-(2,2-dichloro-3-(3,5-dichlorophenyl)cyclopropane-1-carboxamido)-N-(4-fluorophenyl)benzamide], the pest or weed control at 50 µg/cm2 in assay [2] (setting [6]) lay within 50 to 100%. In assay [3] (setting [7]), the pest or weed control at 200 µg/mL lay within 0 to 80%. Moreover, the “YFM (Biological Results, rating)” value in assay [4] was “B (More than 0-Less than 80)”.

For the compound `O=C(Nc1ccc(F)cc1)c1cc(NC(=O)C2C(c3cc(Cl)cc(Cl)c3)C2(F)Cl)ccc1Cl` (stereo not drawn) [PF153, 2-Chloro-5-(trans)-2-chloro-3-(3,5-dichlorophenyl)-2-fluorocyclopropane-1-carboxamido)-N-(4-fluorophenyl)benzamide], the pest or weed control at 50 µg/cm2 in assay [1] (setting [8]) and in assay [2] (setting [9]) was 50 to 100% throughout. Moreover, in assay [3] (setting [10]), the pest or weed control at 200 µg/mL lay within 80 to 100%.

With `O=C(Nc1ccc(Cl)cc1)c1cc(NC(=O)[C@H]2[C@H](c3cc(Cl)cc(Cl)c3)C2(Cl)Cl)ccc1Cl` (relative stereo) [F7, trans-2-Chloro-N-(4-chlorophenyl)-5-(2,2-dichloro-3-(3,5-dichlorophenyl)cyclopropane-1-carboxamido)benzamide], the pest or weed control at 50 µg/cm2 in assay [1] (setting [5]) and in assay [2] (setting [6]) was 50 to 100% each time. Further, the pest or weed control at 200 µg/mL in assay [3] (setting [7]) is 0 to 80%.

With `CC(=O)Nc1ccc(NC(=O)c2cc(NC(=O)[C@H]3[C@H](c4cc(Cl)cc(Cl)c4)C3(Cl)Cl)ccc2Cl)cc1` (relative stereo) [F153, trans-N-(4-Acetamidophenyl)-2-chloro-5-(2,2-dichloro-3-(3,5-dichlorophenyl)cyclopropane-1-carboxamido)benzamide], the pest or weed control at 50 µg/cm2 in assay [1] (setting [5]) and in assay [2] (setting [6]) was 50 to 100% in each case. For the same compound, the pest or weed control at 200 µg/mL in assay [3] (setting [7]) is 0 to 80%.
